# Legend:
# piglets = conditions: cited from earlier work; for learning and memory tasks compared to controls: piglets fed the substance; for cognitive performance: piglets, feeding
# [1] = tested on: infant regional cerebral blood flow (rCBF); test: Arterial Spin Labeling (rCBF) of newborn brain vs HMO concentration in mother's milk at 1-month, voxel-wise multiple linear regression; assay type: in vivo, human; conditions: for association of exposure with rCBF: milk concentration at 1-month, total sample N=20, FDR-corrected; for B, association of exposure with rCBF: white matter
# From the text: (§1) Twenty mother-infant pairs were recruited from maternity clinics in Los Angeles County as part of a larger cohort study, and inclusion criteria has been previously described. Briefly, mothers were included if they were ≥18 years old at delivery, had given birth to a full-term singleton newborn, were breastfeeding, and were enrolled within 1 month from delivery. […] The Institutional Review Board of Children's Hospital Los Angeles approved all procedures. Participants provided written informed consent prior to data collection.
# (§2) Mother-infant pairs were assessed at 1-month postpartum. Historical health-related information was collected. Mothers pumped a full expression of breast milk that was analyzed for individual HMO concentrations. Infants underwent magnetic resonance imaging (MRI) scanning at approximately 1-month postpartum to assess brain tissue microstructure and regional cerebral blood flow (rCBF).
# (§3) Breast milk was collected and analyzed following standard procedures. Mothers were asked to avoid eating and drinking for 1-hour and feeding or pumping breast milk for 1.5-hours before collection. Mothers were encouraged to pump the entire contents of a single breast expression to ensure collection of fore, mid, and hind milk to standardize milk collection as much as possible. Aliquots were stored at −80° C. until HMO characterization at the University of California San Diego. Raffinose was added to each sample as an internal standard for absolute quantification. HMOs were isolated with high-throughput solid-phase extraction, fluorescently labeled, and measured using HPLC. Nineteen HMOs were quantified based on standard retention times and mass spectrometric analysis, which accounted for >90% of total HMO composition. The initial focus, however, was on the most abundant fucosylated and sialylated HMOs reported to influence brain development in animals and infants: 2′FL, 3FL, 3′SL, and 6′SL. Secretor status was defined by the presence or near absence of HMOs 2′FL or lacto-N-fucopentaose I.
# (§4) MRI data were collected on a 3 Tesla Philips Achieva MRI scanner equipped with a 32-channel receive-only head coil. All data were acquired without sedation or contrast agent. Mothers and staff lulled infants to sleep with feeding and swaddling. Scans were visually monitored and repeated for any visible motion. Detailed image quality was assessed during preprocessing within 48 hours of scan acquisition.
# Arterial Spin Labeling (ASL), which quantifies rCBF, a surrogate measure of cellular metabolism: The rCBF brain images and the Mo_wM image to the first rCBF image for each participant were aligned in native imaging space to correct for head motion. Images with >0.5 mm inter-frame motion were excluded from further processing. […] An in-house software was used to construct for each infant a voxel-wise map of rCBF from the ASL time series and Mo_wm image: 1) pair-wise subtracted the control images from the labeled images; 2) Perfusion-weighted images were calculated by pair-wise subtraction of the control and labeled images, followed by averaging across the imaging time series. The perfusion map (rCBF) was calculated using a single compartment model. A linear transformation with 6 degrees of freedom was used to coregister the quantitative rCBF maps for each infant to their T1-weighted anatomical images, which were in turn used as an intermediary source to coregister the rCBF images for each infant to the final brain template. […]
# [2] = tested on: infant brain tissue microstructure; test: Diffusion Tensor Imaging (FA, MD) of newborn brain vs HMO concentration in mother's milk at 1-month, voxel-wise multiple linear regression; assay type: in vivo, human; conditions: for association of exposure with FA values / association of exposure with MD values: milk concentration at 1-month, total sample N=20, FDR-corrected
# From the text: as §1, §2, §3, §4
# Diffusion Tensor Imaging (DTI), which measures the diffusion of water as influenced by characteristics of brain tissue microstructure: The template brain was selected using a 2-step procedure to find the brain that was morphologically representative of all brains in our sample, as described in FIG. 1. Quality assurance procedures were instituted to exclude datasets with excessive motion. The diffusion tensor (D) was estimated at each voxel of the pre-processed DTI data in DSI Studio (RRID:SCR_009557) and computed the scalar indices fractional anisotropy (FA), mean diffusivity (MD), axial diffusivity (AD), and radial diffusivity (RD). These maps were edited to remove nonbrain tissue and then were threshed to remove background noise. Edited MD map was used to mask out nonbrain tissue in the FA, AD, and RD maps. The edited maps for each infant were coregistered using a rigid body transformation (3 translations and 3 rotations) to the infant's T1-weighted (T1w) anatomical image, which were in turn used as an intermediary source to coregister the maps for each infant to the final template brain. The FA, AD, MD, and RD maps were then smoothed using a Gaussian kernel with FWHM=4 mm.
# Descriptive statistics are presented as mean±standard deviation (SD) for continuous variables and as frequency (percentage) for categorical variables. Normal distribution and homogeneity of variances were confirmed by Shapiro-Wilks W and Levene's tests. Values >3 SD from the mean were identified as outliers. […]
SMILES,learning and memory tasks compared to controls (piglets),cognitive performance (piglets),association of exposure with rCBF [1],association of exposure with FA values [2],association of exposure with MD values [2],"B, association of exposure with rCBF ([1]; CC)","B, association of exposure with rCBF ([1]; IC)","B, association of exposure with rCBF ([1]; aCR)","B, association of exposure with MD values ([2]; left posterior corona radiata, pCR)","B, association of exposure with FA values ([2]; right DLPFC)","B, association of exposure with FA values ([2]; right aCR)"
"CC(=O)N[C@H]1[C@H]([C@H](O)[C@H](O)CO)O[C@@](OC[C@H]2O[C@@H](O[C@H]3[C@H](O)[C@@H](O)[C@H](O)O[C@@H]3CO)[C@H](O)[C@@H](O)[C@H]2O)(C(=O)O)C[C@@H]1O [6′SL, 6′-sialyllactose, reference compound]",performed better on learning and memory tasks,improved cognitive performance,not significantly associated,not significantly associated,not significantly associated,–,–,–,–,–,–
"CC(=O)N[C@H]1[C@H]([C@H](O)[C@H](O)CO)O[C@@](O[C@H]2[C@@H](O)[C@@H](CO)O[C@@H](O[C@H]3[C@H](O)[C@@H](O)C(O)O[C@@H]3CO)[C@@H]2O)(C(=O)O)C[C@@H]1O (stereo partly shown) [3′SL, 3′-sialyllactose]",performed better on learning and memory tasks,improved cognitive performance,increased rCBF,increased FA values,reduced MD values,0.06,0.04,0.07,−0.10,0.03,0.04
